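Values below derive from 48-hour exposures of cells grown in 96-well plates, with endpoints linearly interpolated between the two concentrations bracketing the appropriate inhibition level. GI50 marks 50% less growth.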 Active and inactive are the calls of the source. No stated cut-off is given here; in the data, active = GI50 up to about 1.1 µM and inactive = higher.
Columns and labels:
Assay in all cases: DTP human tumour cell line panel, 48 h
[1] = system: KM12
[2] = system: SK-OV-3
[3] = system: TK-10
[4] = system: ACHN
[5] = system: OVCAR-4
[6] = system: HCT-116
[7] = system: CCRF-CEM
[8] = system: SR
[9] = system: A498
[10] = system: NCI-H460
[11] = system: NCI-H23
[12] = system: 786-0
[13] = system: SF-268
[14] = system: A549
[15] = system: OVCAR-8
[16] = system: NCI-H522
[17] = system: LOX IMVI
[18] = system: UO-31
[19] = system: SF-295
[20] = system: BT-549
[21] = system: RXF 393
[22] = system: IGROV-1
[23] = system: EKVX
[24] = system: COLO 205
[25] = system: MOLT-4
[26] = system: SK-MEL-5
[27] = system: U-251
[28] = system: RPMI-8226
[29] = system: SW-620
[30] = system: OVCAR-5
[31] = system: Malme-3M
[32] = system: NCI-H226
[33] = system: DU-145
[34] = system: CAKI-1
[35] = system: MDA-MB-435
[36] = system: T47D
[37] = system: Hs-578T
[38] = system: UACC-62
[39] = system: SN12C
[40] = system: HCT-15
[41] = system: SK-MEL-2
[42] = system: MDA-MB-231
[43] = system: SNB-75
[44] = system: HOP-92
[45] = system: SK-MEL-28
[46] = system: OVCAR-3
[47] = system: MCF7
[48] = system: HCC 2998
[49] = system: SF-539
[50] = system: HL-60
[51] = system: MDA-N
[52] = system: HOP-62
[53] = system: NCI/ADR-RES
[54] = system: HT-29
[55] = system: PC-3
[56] = system: K562
[57] = system: UACC-257
[58] = system: SNB-19
[59] = system: M14

## COC(=O)C1=NN2c3ccccc3C(=O)OCCC2(C)C1 (stereo not drawn)
[1]
  GI50: > 100 µM (inactive)
[2]
  GI50: > 100 µM (inactive)
[3]
  GI50: > 100 µM (inactive)
[4]
  GI50: > 100 µM (inactive)
[5]
  GI50: > 100 µM (inactive)
[6]
  GI50: > 100 µM (inactive)
[7]
  GI50: > 100 µM (inactive)
[8]
  GI50: > 100 µM (inactive)
[9]
  GI50: > 100 µM (inactive)
[10]
  GI50: 68.2 µM (inactive)
[11]
  GI50: > 100 µM (inactive)
[12]
  GI50: > 100 µM (inactive)
[13]
  GI50: > 100 µM (inactive)
[14]
  GI50: > 100 µM (inactive)
[15]
  GI50: > 100 µM (inactive)
[16]
  GI50: > 100 µM (inactive)
[17]
  GI50: > 100 µM (inactive)
[18]
  GI50: > 100 µM (inactive)
[19]
  GI50: > 100 µM (inactive)
[20]
  GI50: > 100 µM (inactive)
[21]
  GI50: > 100 µM (inactive)
[22]
  GI50: > 100 µM (inactive)
[23]
  GI50: > 100 µM (inactive)
[24]
  GI50: > 100 µM (inactive)
[25]
  GI50: > 100 µM (inactive)
[26]
  GI50: > 100 µM (inactive)
[27]
  GI50: > 100 µM (inactive)
[28]
  GI50: > 100 µM (inactive)
[29]
  GI50: > 100 µM (inactive)
[30]
  GI50: > 100 µM (inactive)
[31]
  GI50: > 100 µM (inactive)
[32]
  GI50: > 100 µM (inactive)
[33]
  GI50: > 100 µM (inactive)
[34]
  GI50: > 100 µM (inactive)
[35]
  GI50: > 100 µM (inactive)
[36]
  GI50: > 100 µM (inactive)
[37]
  GI50: > 100 µM (inactive)
[38]
  GI50: > 100 µM (inactive)
[39]
  GI50: > 100 µM (inactive)
[40]
  GI50: > 100 µM
[41]
  GI50: > 100 µM (inactive)
[42]
  GI50: > 100 µM (inactive)
[43]
  GI50: > 100 µM (inactive)
[44]
  GI50: > 100 µM (inactive)
[45]
  GI50: > 100 µM (inactive)
[46]
  GI50: > 100 µM (inactive)
[47]
  GI50: > 100 µM (inactive)
[48]
  GI50: > 100 µM (inactive)
[49]
  GI50: > 100 µM (inactive)
[50]
  GI50: > 100 µM (inactive)
[51]
  GI50: > 100 µM (inactive)
[52]
  GI50: > 100 µM (inactive)
[53]
  GI50: > 100 µM (inactive)
[54]
  GI50: > 100 µM (inactive)
[55]
  GI50: > 100 µM (inactive)
[56]
  GI50: > 100 µM (inactive)

## Cn1c(=S)[nH]c(N)c(Cc2ccccc2)c1=O
[1]
  GI50: 66.1 µM (inactive)
[2]
  GI50: > 100 µM (inactive)
[3]
  GI50: 81.8 µM (inactive)
[4]
  GI50: > 100 µM (inactive)
[5]
  GI50: > 100 µM (inactive)
[6]
  GI50: > 100 µM (inactive)
[7]
  GI50: > 100 µM (inactive)
[8]
  GI50: 67.5 µM (inactive)
[9]
  GI50: 32.1 µM (inactive)
[10]
  GI50: > 100 µM (inactive)
[11]
  GI50: > 100 µM (inactive)
[12]
  GI50: > 100 µM (inactive)
[13]
  GI50: > 100 µM (inactive)
[14]
  GI50: > 100 µM (inactive)
[15]
  GI50: 93.8 µM (inactive)
[17]
  GI50: > 100 µM (inactive)
[19]
  GI50: > 100 µM (inactive)
[20]
  GI50: > 100 µM (inactive)
[21]
  GI50: > 100 µM (inactive)
[22]
  GI50: 21.2 µM (inactive)
[23]
  GI50: 92.5 µM (inactive)
[24]
  GI50: > 100 µM (inactive)
[25]
  GI50: 41.8 µM (inactive)
[26]
  GI50: > 100 µM (inactive)
[27]
  GI50: > 100 µM (inactive)
[28]
  GI50: > 100 µM (inactive)
[29]
  GI50: > 100 µM (inactive)
[57]
  GI50: > 100 µM (inactive)
[30]
  GI50: > 100 µM (inactive)
[31]
  GI50: 78 µM (inactive)
[32]
  GI50: 44.3 µM (inactive)
[33]
  GI50: > 100 µM (inactive)
[34]
  GI50: > 100 µM (inactive)
[35]
  GI50: > 100 µM (inactive)
[36]
  GI50: 40.3 µM (inactive)
[37]
  GI50: 39 µM (inactive)
[38]
  GI50: 40.2 µM (inactive)
[39]
  GI50: > 100 µM (inactive)
[40]
  GI50: 42.9 µM
[41]
  GI50: > 100 µM (inactive)
[42]
  GI50: > 100 µM (inactive)
[43]
  GI50: 20.3 µM (inactive)
[44]
  GI50: 25.6 µM (inactive)
[45]
  GI50: > 100 µM (inactive)
[46]
  GI50: > 100 µM (inactive)
[47]
  GI50: > 100 µM (inactive)
[48]
  GI50: > 100 µM (inactive)
[58]
  GI50: > 100 µM (inactive)
[49]
  GI50: > 100 µM (inactive)
[50]
  GI50: > 100 µM (inactive)
[51]
  GI50: > 100 µM (inactive)
[52]
  GI50: > 100 µM (inactive)
[53]
  GI50: 64.4 µM (inactive)
[54]
  GI50: 77.8 µM (inactive)
[59]
  GI50: > 100 µM (inactive)
[55]
  GI50: > 100 µM (inactive)
[56]
  GI50: 78.5 µM (inactive)
